From ChEMBL document CHEMBL1201862, “PubChem BioAssay data set” (2004)
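Assay format: 96-well plates, 48-hour exposure. GI50 = concentration required for 50% inhibition of growth.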 Active and inactive are the calls of the source. Rule as the data show it: active = GI50 up to about 1.1 µM and inactive = higher.

Legend:
Assay in all cases: NCI tumour cell line growth inhibition, 48 h
HCT-116 = tested on: HCT-116
IGROV-1 = tested on: IGROV-1
OVCAR-8 = tested on: OVCAR-8
KM12 = tested on: KM12
SK-MEL-28 = tested on: SK-MEL-28
HOP-62 = tested on: HOP-62
ACHN = tested on: ACHN
SN12C = tested on: SN12C
Malme-3M = tested on: Malme-3M
UACC-62 = tested on: UACC-62
CCRF-CEM = tested on: CCRF-CEM
OVCAR-3 = tested on: OVCAR-3
KM-20L2 = tested on: KM-20L2
XF498 = tested on: XF498
U-251 = tested on: U-251
HL-60 = tested on: HL-60
SNB-75 = tested on: SNB-75
NCI-H460 = tested on: NCI-H460
UACC-257 = tested on: UACC-257
HT-29 = tested on: HT-29

Measured: GI50

CCCOC(=O)CCC(NC(=O)c1ccc(Nc2nc3ccccc3nc2-c2cccs2)cc1)C(=O)OCCC (stereo not drawn)
inactive: HCT-116 > 100 µM | IGROV-1 55.1 µM | OVCAR-8 > 100 µM | KM12 > 100 µM | SK-MEL-28 > 100 µM | HOP-62 > 100 µM | ACHN > 100 µM | SN12C > 100 µM | Malme-3M 19.1 µM | UACC-62 41.7 µM | CCRF-CEM 3.62 µM | OVCAR-3 > 100 µM | KM-20L2 > 100 µM | XF498 79.8 µM | U-251 > 100 µM

Cc1cccc2c1Sc1ccccc1C2NC(=O)CN(C)C (stereo not drawn)
inactive: HCT-116 > 100 µM | IGROV-1 > 100 µM | OVCAR-8 > 100 µM | SK-MEL-28 52.4 µM | HL-60 74.5 µM | HOP-62 > 100 µM | SNB-75 16 µM | ACHN 43.4 µM | SN12C 81.5 µM | UACC-62 > 100 µM | NCI-H460 > 100 µM | CCRF-CEM > 100 µM | KM-20L2 18.7 µM | UACC-257 52.6 µM | XF498 > 100 µM | HT-29 69.2 µM | U-251 > 100 µM

Nc1nc(=S)[nH]c2nc3c(c(-c4ccccc4)c12)CCCC3
inactive: HCT-116 > 100 µM | IGROV-1 > 100 µM | OVCAR-8 > 100 µM | KM12 > 100 µM | HL-60 > 100 µM | HOP-62 > 100 µM | SNB-75 34.8 µM | ACHN > 100 µM | SN12C 67.8 µM | Malme-3M > 100 µM | UACC-62 > 100 µM | NCI-H460 > 100 µM | CCRF-CEM > 10 µM | OVCAR-3 > 100 µM | UACC-257 > 10 µM | HT-29 > 100 µM | U-251 > 100 µM

O=Cc1c(Br)[nH]c2ccccc12
inactive: HCT-116 84.7 µM | IGROV-1 > 81.1 µM | OVCAR-8 > 100 µM | KM12 > 100 µM | SK-MEL-28 > 100 µM | HL-60 9.55 µM | HOP-62 > 100 µM | SNB-75 28.8 µM | SN12C > 100 µM | Malme-3M > 100 µM | UACC-62 47 µM | NCI-H460 > 100 µM | CCRF-CEM 96.6 µM | OVCAR-3 > 100 µM | KM-20L2 > 100 µM | UACC-257 26.9 µM | XF498 > 100 µM | HT-29 > 100 µM | U-251 89.3 µM
